Results taken from patent US20240409534A1, “CRYSTAL FORM OF METHYLPYRAZOLE-SUBSTITUTED PYRIDOIMIDAZOLE COMPOUND AND PREPARATION METHOD THEREFOR” (priority 2021, published 2024).

Test: Pharmacokinetic study in rats at 100 mpk (Experimental Embodiment 4)
Assay type: in vivo
Settings: male SD rats; for AUC(0-inf) / AUC(0-t) / Cmax / Tmax / half-life: Sprague-Dawley, rat, plasma, po, 100 mg/kg
Procedure: SD rats (overnight fasting, 7 to 11 weeks old)
The compound of the present disclosure or its crystal form of 5% DMSO/10% Kolliphor HS15/85% (0.2% (v/v) Tween80 aqueous solution) at 10 mg/mL was administered by gavage to male SD rats (overnight fasting, 7 to 11 weeks old) at a dose of 100 mg/kg. At 0.25, 0.5, 1.0, 2.0, 4.0, 8.0 and 24 h after administration, approximately 0.2 mL of blood was collected from the jugular vein of the animals in all three groups, placed in an anticoagulant tube added with EDTA-K2, and centrifuged for the separation of plasma. Plasma concentrations were determined by LC-MS/MS method, and relevant pharmacokinetic parameters were calculated using WinNonlin™ Version 6.3 (Pharsight, Mountain View, CA) pharmacokinetic software with non-compartmental model linear-log trapezoidal method.

Structure (SMILES) | AUC(0-inf) [µM·h] | AUC(0-t) [µM·h] | Cmax [µM] | Tmax [h] | half-life [h] | Tlast [h]
Cn1cc(-c2ccn3c(-c4cc(NS(C)(=O)=O)nc(-c5ccc(F)cc5F)c4)cnc3c2)cn1 [Compound represented by formula (I)] | 12.6 | 12.6 | 3.75 | 0.5 | 2.25 | 24.0
CS(=O)(=O)O.Cn1cc(-c2ccn3c(-c4cc(NS(C)(=O)=O)nc(-c5ccc(F)cc5F)c4)cnc3c2)cn1 | 179 | 179 | 22.1 | 2.5 | 1.85 | 24.0
Cl.Cn1cc(-c2ccn3c(-c4cc(NS(C)(=O)=O)nc(-c5ccc(F)cc5F)c4)cnc3c2)cn1 | 32.3 | 32.3 | 8.78 | 0.5 | 2.57 | 24.0
